Read-outs that look alike come from different tables or passages of the source.
What was measured:
[1] = cited from earlier work
A375 melanoma cells = assay: cells; type: cell-based, human; conditions: XTT, 24 h incubation, read-out: IC50, A375 melanoma cell viability
Description: A375 cells were seeded in 96 well plates at a density of around 10^5 cells per well in 95 μL of MEM medium and incubated for 24 h, Cells were treated with 5 μL of drugs in a final concentration of 0, 0.3 nM, 1 nM, 3 nM, 10 nM, 30 nM, 100 nM and 300 nM for 24 h. XTT solution was prepared by dissolving 4 mg XTT in 4 mL MEM medium. PMS solution was prepared by dissolving 3 mg of PMS in 1 mL of phosphate buffer saline (PBS). 10 μL of PMS solution was added to 4 mL of XTT solution, and 25 μL of the PMS/XTT mixture was added to each well. The plate was incubated at 37 ° C. for another 2 h culture. Absorbance was measured at 450 nm using a pQuant Universal Microplate Reader (Bio-Tek instruments, Inc., Winooski, VT). Absorbance from no-cells control was subtracted and the percentage of cell viability was calculated as the percentage of absorbance relative to cells treated with medium.

human MC1R = biological target: T1, human MC1R (Homo sapiens, UniProt Q01726); assay: Competitive binding assay with 125I labelled NDP-α-MSH on whole cells, MC1R; conditions: for Ki: HEK293 cells overexpressing human MC1R, 125I NDP-α-MSH; for displacement of NDP-α-MSH from MC1R: within micromolar range concentration
T1 construct: expressed in transfected cells; host or cells: HEK293 (stably transfected)
Description: Competitive binding assays were performed on whole cells. Stably transfected HEK293 cell lines overexpressing human MC1R, MC3R, MC4R or MC5R were seeded on 96-well plates 48 h before the assay and grown to 100,000 cells per well. For the assay, the medium was removed, and cells were washed twice with a binding buffer containing minimum essential medium with Earle's salt (MEM, GIBCO), 25 mM HEPES (pH 7.4), 0.2% bovine serum albumin, 1 mM 1,10-phenanthrolone, 0.5 mg/L leupeptin and 200 mg/L bacitracin. Cells were incubated with different concentrations of unlabeled test compounds and ^125I labelled NDP-α-MSH (PerkinElmer, 100,000 cpm/well, 0.1386 nM) for 40 min at 37° C. The medium was subsequently removed, and the cells were washed twice with the binding buffer. The cells were lysed by 50 μL of 0.1 mM NaOH and 50 μL of 1% Triton X-100. The plates were left dry overnight under the hood, and 50 μL of scintillation fluid (OptiPhase SuperMix, PerkinElmer) were added in each well. The radioactivity was measured using MicroBeta 2 microplate counter (PerkinElmer).

[2] = tested on: A375 malignant melanoma cells; assay: Live-cell confocal microscopy, fluorescence uptake by A375 cells; type: cell-based, human
Description: (§1) 1 mL of A375 or HEK293 cell suspension (˜5×10^4 cells) were seeded in 35 mm No. 1.5 coverslip glass-bottomed microwell dish (MatTek) and cultured overnight. Cells were gently washed with PBS twice and treated with compound 2 (3 μM) with or without MT-II (30 μM) in phenol red-free, HEPES-supplemented DMEM. After incubation at 37° C. for indicated time, cells were washed three times with PBS before imaging. Images were taken with Zeiss LSM880 inverted confocal microscope with either bright field or laser at […] with 2% laser power and Plan-Apochromat 63×/1.4 Oil DIC M27 objective.

[3] = tested on: HEK293 kidney epithelial cells; assay: Live-cell confocal microscopy, fluorescence uptake by HEK293 cells; type: cell-based; conditions: 3 μM, 2.5 h
Description: as §1

[4] = linear peptide; cited from earlier work

T1 sequence (Q01726 whole entry): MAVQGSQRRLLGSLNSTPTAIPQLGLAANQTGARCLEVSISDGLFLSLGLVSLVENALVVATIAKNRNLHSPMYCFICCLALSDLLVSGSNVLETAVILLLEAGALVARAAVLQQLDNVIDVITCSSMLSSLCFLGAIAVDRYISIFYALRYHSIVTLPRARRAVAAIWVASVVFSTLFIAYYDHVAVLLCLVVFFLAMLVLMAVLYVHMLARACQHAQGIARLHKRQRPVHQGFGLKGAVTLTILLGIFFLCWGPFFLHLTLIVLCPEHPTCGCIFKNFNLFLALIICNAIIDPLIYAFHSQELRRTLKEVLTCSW

CC[C@@]1(O)C(=O)OCc2c1cc1n(c2=O)Cc2cc3ccccc3nc2-1 [CPT, camptothecin, reference compound]
solubility [1]: poor solubility
IC50 (A375 melanoma cells; Homo sapiens, A-375): 47 ± 2 nM

CCCC[C@H](NC(=O)CCCCCNC(=O)[C@@H](N)CSSCCOC(=O)O[C@]1(CC)C(=O)OCc2c1cc1n(c2=O)Cc2cc3ccccc3nc2-1)C(=O)N[C@H]1CC(=O)NCCCC[C@@H](C(N)=O)NC(=O)[C@H](Cc2c[nH]c3ccccc23)NC(=O)[C@H](CCCNC(=N)N)NC(=O)[C@@H](Cc2ccccc2)NC(=O)[C@H](Cc2c[nH]cn2)NC1=O [CPT-MT-II (1)]
IC50 (A375 melanoma cells): 16 nM
Ki (human MC1R; Ki MC1R): 57 nM
selectivity to MC1R as compared to MC3R, MC4R and MC5R (human MC1R; from Ki values): 3-6 fold

CCCC[C@H](NC(=O)CCCCCNC(=O)[C@@H](N)CSSCCOC(=O)Oc1ccc2c(c1)Oc1cc(O)ccc1C21OC(=O)c2ccccc21)C(=O)N[C@H]1CC(=O)NCCCC[C@@H](C(N)=O)NC(=O)[C@H](Cc2c[nH]c3ccccc23)NC(=O)[C@H](CCCNC(=N)N)NC(=O)[C@@H](Cc2ccccc2)NC(=O)[C@H](Cc2c[nH]cn2)NC1=O (some centres unmarked) [fluorescein-MT-II (2)]
fluorescence uptake by A375 cells ([2]; 3 μM with 30 μM of MT-II, 2.5 h): not observed
fluorescence uptake by A375 cells ([2]; 3 μM, 0.5 h): No significant fluorescence uptake
fluorescence uptake by A375 cells ([2]; 3 μM, 2.5 h): strong fluorescence
time for release of fluorescein into A375 ([2]; confocal microscopy): at least 90 minutes
Ki (human MC1R; read-out: Ki MC1R): 172 nM
displacement of NDP-α-MSH from MC1R (human MC1R): fully displace
displacement of NDP-α-MSH from MC1R (human MC1R; listed as fluorescein-MT-II): fully displace NDP-α-MSH
fluorescence uptake by HEK293 cells compared to A375 cells [3]: much weaker fluorescence intensity

α-MSH
half-life [4]: around 10 minutes
